Experimental data as given in patent US11000033B2, “Ketone or oxime compound, and herbicide” (NISSAN CHEMICAL CORPORATION, priority 2014, dated 2021).

Key:
Assay type in all cases: in vivo
[1] = test system: directly sowed rice plant; assay: Test Example 3: effect on crop by foliage application, Wagner pot (symbol b); settings: application herbicide amount 320 g/ha
Procedure, shortened: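 Alluvial soil in a 1/10000-are Wagner pot was flooded to a water depth of 0.1–0.5 cm. Echinochloa crus-galli var. crus-galli, Leptochloa chinensis, Cyperus difformis and rice were sown into it and grown in a greenhouse at 25–30 °C.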

Alopecurus myosuroides = assay: Test Example 5: herbicidal effect by foliage application, plastic box (symbol J); settings: 320 g/ha, 3 weeks after application
Procedure, shortened: (§1)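 Greenhouse foliar test: seedlings at 14 days, grown 25° C. to 30° C. in sterilized diluvial soil; compound applied as an aqueous dilution of an emulsion; response read 3 weeks after spraying.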

rice = assay: Test Example 4: effect on crop by soil treatment (symbol b); settings: application herbicide amount 320 g/ha
Procedure, shortened: (§2)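 Soil-treatment setup: crop and weed seeds were spot-sown into sterilized diluvial soil, then buried beneath approximately 1.5 cm of it, and the boxes were housed in a 25–30° C. greenhouse.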

wheat [2] = assay: Test Example 5: effect on crop by foliage application, plastic box (symbol e); settings: 320 g/ha, 3 weeks after application
Procedure, shortened: (§3)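 Sterilized diluvial soil, plastic box (21 × 13 × 7 cm); spot sowing, ~1.5 cm soil cover; greenhouse 25–30° C.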

wheat [3] = assay: Test Example 4: effect on crop by soil treatment (symbol e); settings: application herbicide amount 320 g/ha
Procedure, shortened: as §2

soybean = assay: Test Example 5: effect on crop by foliage application, plastic box (symbol d); settings: 320 g/ha, 3 weeks after application
Procedure, shortened: as §3

Avena fatua = assay: Test Example 5: herbicidal effect by foliage application, plastic box (symbol I); settings: 320 g/ha, 3 weeks after application
Procedure, shortened: as §1

beet = assay: Test Example 5: effect on crop by foliage application, plastic box (symbol f); settings: 320 g/ha, 3 weeks after application
Procedure, shortened: as §3

Monochoria vaginalis = assay: Test Example 2: herbicidal activity, application during weed generation in submerged conditions (symbol C); settings: Table 23; application herbicide amount 320 g/ha; grade 0-5 by criteria of Test Example 1
Procedure, shortened: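 Paddy pot test, submerged (4 cm water), alluvial soil, mixed sowing; greenhouse 25–30° C. Emulsion formulation diluted to predetermined rate, applied onto floodwater at 1–2 leaf stage. Visual herbicidal rating at 3 wk post-treatment.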

Digitaria ciliaris = assay: Test Example 5: herbicidal effect by foliage application, plastic box (symbol F); settings: 320 g/ha, 3 weeks after application
Procedure, shortened: as §1

Amaranthus retroflexus = assay: Test Example 4: herbicidal effect by soil treatment (symbol N); settings: application herbicide amount 320 g/ha
Procedure, shortened: (§4)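 Seeds were sown in sterilized diluvial soil, covered with about 1.5 cm of soil, and the soil surface was sprayed with a water-diluted emulsion of the compound at a predetermined rate. Plants grew in a greenhouse at 25° C. to 30° C.; effects were scored visually 3 weeks after application.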

Apera spica-venti = assay: Test Example 4: herbicidal effect by soil treatment (symbol L); settings: application herbicide amount 320 g/ha
Procedure, shortened: as §4

Abutilon theophrasti = assay: Test Example 4: herbicidal effect by soil treatment (symbol M); settings: application herbicide amount 320 g/ha
Procedure, shortened: as §4

Setaria viridis = assay: Test Example 4: herbicidal effect by soil treatment (symbol G); settings: application herbicide amount 320 g/ha
Procedure, shortened: as §4

Cyperus difformis = assay: Test Example 3: herbicidal effect by foliage application, Wagner pot (symbol E); settings: application herbicide amount 320 g/ha
Procedure, shortened: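 Foliar spray of water-diluted emulsion formulation at a predetermined herbicide amount onto 14-day-old plants in flooded alluvial soil (water depth 0.1–0.5 cm), greenhouse 25–30 °C; rice sown alongside. Scored 3 wk post-application on set criteria.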

Stellaria media = assay: Test Example 4: herbicidal effect by soil treatment (symbol P); settings: application herbicide amount 320 g/ha
Procedure, shortened: as §4

`CC(CC1CC(O)=C(c2c(C)cc(C)cc2C)C1=O)=NOCC1CC1` (stereo not shown) [1-024] was tested, and the “effect on crop b (directly sowed rice plant), grade 0-5” value (“effect on crop b” for short) [1] was 5 (Herbicidal ratio of 90% or more (almost completely withered)), the “J: Alopecurus myosuroides, herbicidal effect grade” value (shortened to “J: Alopecurus myosuroides”) (Alopecurus myosuroides) was 5 (Herbicidal ratio of 90% or more (almost completely withered)) and the “b (directly sowed rice plant) effect on crop grade” value (rice) was 5 (Herbicidal ratio of 90% or more (almost completely withered)). The “e: wheat, effect on crop grade” value (wheat [2]) was 5 (Herbicidal ratio of 90% or more (almost completely withered)), the “e (wheat) effect on crop grade” value (wheat [3]) was 4 (Herbicidal ratio of 70% or higher and lower than 90%) and the “d: soybean, effect on crop grade” value (soybean) was 2 (Herbicidal ratio of 20% or higher and lower than 40%). The “I: Avena fatua, herbicidal effect grade” value (Avena fatua) was 5 (Herbicidal ratio of 90% or more (almost completely withered)), the “f: beet, effect on crop grade” value (beet) was 0 (Herbicidal ratio of 5% or lower (almost no effect)) and the “Herbicidal effect grade, C: Monochoria vaginalis” value (“Herbicidal effect grade, C” for short) (Monochoria vaginalis) was 3 (Herbicidal ratio of 40% or higher and lower than 70%). The “F: Digitaria ciliaris, herbicidal effect grade” value (“F: Digitaria ciliaris” for short) (Digitaria ciliaris) was 5 (Herbicidal ratio of 90% or more (almost completely withered)), the “N (Amaranthus retroflexus) herbicidal effect grade” value (Amaranthus retroflexus) was 4 (Herbicidal ratio of 70% or higher and lower than 90%) and the “L (Apera spica-venti) herbicidal effect grade” value (Apera spica-venti) was 5 (Herbicidal ratio of 90% or more (almost completely withered)). For the same compound, the “M (Abutilon theophrasti) herbicidal effect grade” value (Abutilon theophrasti) was 3 (Herbicidal ratio of 40% or higher and lower than 70%), the “G (Setaria viridis) herbicidal effect grade” value (Setaria viridis) was 3 (Herbicidal ratio of 40% or higher and lower than 70%) and the “herbicidal effect on E, grade 0-5” value (Cyperus difformis) was 5 (Herbicidal ratio of 90% or more (almost completely withered)).
`CON=C(C)CC1CC(OC(=O)COc2ccccc2)=C(c2c(C)cc(C)cc2C)C1=O` (stereo not shown) [1-043] was tested, and the “effect on crop b” value [1] was 5 (Herbicidal ratio of 90% or more (almost completely withered)), the “J: Alopecurus myosuroides” value (Alopecurus myosuroides) was 5 (Herbicidal ratio of 90% or more (almost completely withered)) and the “b (directly sowed rice plant) effect on crop grade” value (rice) was 5 (Herbicidal ratio of 90% or more (almost completely withered)). For the same compound, the “e: wheat, effect on crop grade” value (wheat [2]) was 5 (Herbicidal ratio of 90% or more (almost completely withered)), the “e (wheat) effect on crop grade” value (wheat [3]) was 4 (Herbicidal ratio of 70% or higher and lower than 90%) and the “d: soybean, effect on crop grade” value (soybean) was 4 (Herbicidal ratio of 70% or higher and lower than 90%). For the same compound, the “I: Avena fatua, herbicidal effect grade” value (Avena fatua) was 5 (Herbicidal ratio of 90% or more (almost completely withered)), the “f: beet, effect on crop grade” value (beet) was 3 (Herbicidal ratio of 40% or higher and lower than 70%) and the “Herbicidal effect grade, C” value (Monochoria vaginalis) was 3 (Herbicidal ratio of 40% or higher and lower than 70%). For the same compound, the “F: Digitaria ciliaris” value (Digitaria ciliaris) was 5 (Herbicidal ratio of 90% or more (almost completely withered)), the “N (Amaranthus retroflexus) herbicidal effect grade” value (Amaranthus retroflexus) was 4 (Herbicidal ratio of 70% or higher and lower than 90%) and the “L (Apera spica-venti) herbicidal effect grade” value (Apera spica-venti) was 5 (Herbicidal ratio of 90% or more (almost completely withered)). The “M (Abutilon theophrasti) herbicidal effect grade” value (Abutilon theophrasti) was 4 (Herbicidal ratio of 70% or higher and lower than 90%), the “G (Setaria viridis) herbicidal effect grade” value (Setaria viridis) was 5 (Herbicidal ratio of 90% or more (almost completely withered)) and the “herbicidal effect on E, grade 0-5” value (Cyperus difformis) was 5 (Herbicidal ratio of 90% or more (almost completely withered)).
For `CC(CC1CC(O)=C(c2c(C)cc(C)cc2C)C1=O)=NOCC(C)O` (stereo not shown) [1-027], the “effect on crop b” value [1] was 5 (Herbicidal ratio of 90% or more (almost completely withered)), the “J: Alopecurus myosuroides” value (Alopecurus myosuroides) was 5 (Herbicidal ratio of 90% or more (almost completely withered)) and the “b (directly sowed rice plant) effect on crop grade” value (rice) was 5 (Herbicidal ratio of 90% or more (almost completely withered)). The “e: wheat, effect on crop grade” value (wheat [2]) was 4 (Herbicidal ratio of 70% or higher and lower than 90%), the “e (wheat) effect on crop grade” value (wheat [3]) was 3 (Herbicidal ratio of 40% or higher and lower than 70%) and the “d: soybean, effect on crop grade” value (soybean) was 3 (Herbicidal ratio of 40% or higher and lower than 70%). For the same compound, the “I: Avena fatua, herbicidal effect grade” value (Avena fatua) was 5 (Herbicidal ratio of 90% or more (almost completely withered)), the “f: beet, effect on crop grade” value (beet) was 0 (Herbicidal ratio of 5% or lower (almost no effect)) and the “Herbicidal effect grade, C” value (Monochoria vaginalis) was 0 (Herbicidal ratio of 5% or lower (almost no effect)). For the same compound, the “F: Digitaria ciliaris” value (Digitaria ciliaris) was 5 (Herbicidal ratio of 90% or more (almost completely withered)), the “N (Amaranthus retroflexus) herbicidal effect grade” value (Amaranthus retroflexus) was 0 (Herbicidal ratio of 5% or lower (almost no effect)) and the “L (Apera spica-venti) herbicidal effect grade” value (Apera spica-venti) was 5 (Herbicidal ratio of 90% or more (almost completely withered)). The “M (Abutilon theophrasti) herbicidal effect grade” value (Abutilon theophrasti) was 0 (Herbicidal ratio of 5% or lower (almost no effect)), the “G (Setaria viridis) herbicidal effect grade” value (Setaria viridis) was 3 (Herbicidal ratio of 40% or higher and lower than 70%) and the “herbicidal effect on E, grade 0-5” value (Cyperus difformis) was 5 (Herbicidal ratio of 90% or more (almost completely withered)).
For `CC(CC1CC(O)=C(c2c(C)cc(C)cc2C)C1=O)=NOCc1ccccc1F` (stereo not shown) [1-026], the “effect on crop b” value [1] was 5 (Herbicidal ratio of 90% or more (almost completely withered)), the “J: Alopecurus myosuroides” value (Alopecurus myosuroides) was 5 (Herbicidal ratio of 90% or more (almost completely withered)) and the “b (directly sowed rice plant) effect on crop grade” value (rice) was 4 (Herbicidal ratio of 70% or higher and lower than 90%). For the same compound, the “e: wheat, effect on crop grade” value (wheat [2]) was 2 (Herbicidal ratio of 20% or higher and lower than 40%), the “e (wheat) effect on crop grade” value (wheat [3]) was 2 (Herbicidal ratio of 20% or higher and lower than 40%) and the “d: soybean, effect on crop grade” value (soybean) was 0 (Herbicidal ratio of 5% or lower (almost no effect)). The “I: Avena fatua, herbicidal effect grade” value (Avena fatua) was 1 (Herbicidal ratio of 5% or higher and lower than 20%), the “Herbicidal effect grade, C” value (Monochoria vaginalis) was 3 (Herbicidal ratio of 40% or higher and lower than 70%) and the “F: Digitaria ciliaris” value (Digitaria ciliaris) was 5 (Herbicidal ratio of 90% or more (almost completely withered)). The “N (Amaranthus retroflexus) herbicidal effect grade” value (Amaranthus retroflexus) was 0 (Herbicidal ratio of 5% or lower (almost no effect)), the “L (Apera spica-venti) herbicidal effect grade” value (Apera spica-venti) was 5 (Herbicidal ratio of 90% or more (almost completely withered)) and the “M (Abutilon theophrasti) herbicidal effect grade” value (Abutilon theophrasti) was 0 (Herbicidal ratio of 5% or lower (almost no effect)). For the same compound, the “G (Setaria viridis) herbicidal effect grade” value (Setaria viridis) was 5 (Herbicidal ratio of 90% or more (almost completely withered)) and the “herbicidal effect on E, grade 0-5” value (Cyperus difformis) was 5 (Herbicidal ratio of 90% or more (almost completely withered)).
For `CC(CC1CC(O)=C(c2c(C)cc(Br)cc2C)C1=O)=NOCC(=O)N(C)C` (mixture of isomers) [9-029], the “b (directly sowed rice plant) effect on crop grade” value ([1]; Table 24) was 3 (Herbicidal ratio of 40% or higher and lower than 70%), the “J: Alopecurus myosuroides” value (Alopecurus myosuroides) was 1 (Herbicidal ratio of 5% or higher and lower than 20%) and the “Effect on crop grade, b: directly sowed rice plant” value (rice) was 1 (Herbicidal ratio of 5% or higher and lower than 20%). The “e: wheat, effect on crop grade” value (wheat [2]) was 4 (Herbicidal ratio of 70% or higher and lower than 90%), the “Effect on crop grade, e: wheat” value (wheat [3]) was 0 (Herbicidal ratio of 5% or lower (almost no effect)) and the “d: soybean, effect on crop grade” value (soybean) was 0 (Herbicidal ratio of 5% or lower (almost no effect)). The “Herbicidal effect grade, P: Stellaria media” value (Stellaria media) was 0 (Herbicidal ratio of 5% or lower (almost no effect)), the “I: Avena fatua, herbicidal effect grade” value (Avena fatua) was 5 (Herbicidal ratio of 90% or more (almost completely withered)) and the “f: beet, effect on crop grade” value (beet) was 0 (Herbicidal ratio of 5% or lower (almost no effect)). For the same compound, the “Herbicidal effect grade, C” value (Monochoria vaginalis) was 0 (Herbicidal ratio of 5% or lower (almost no effect)), the “F: Digitaria ciliaris” value (Digitaria ciliaris) was 3 (Herbicidal ratio of 40% or higher and lower than 70%) and the “Herbicidal effect grade, N: Amaranthus retroflexus” value (Amaranthus retroflexus) was 0 (Herbicidal ratio of 5% or lower (almost no effect)). For the same compound, the “Herbicidal effect grade, M: Abutilon theophrasti” value (Abutilon theophrasti) was 0 (Herbicidal ratio of 5% or lower (almost no effect)) and the “Herbicidal effect grade, G: Setaria viridis” value (Setaria viridis) was 4 (Herbicidal ratio of 70% or higher and lower than 90%).
